Holding throughout (format): cell-based
The subject of one test is MV4-11. The experiment in a line: Cell proliferation inhibition (CellTiter-Glo), MV4-11 cells. The settings on record: Homo sapiens, 96 h; MV4-11 (MLL-AF4), Day 4; read-out: MV-4:11 IC50 μM (Day 4)*. As to the method:
(§1) The present example evaluates the ability of compounds described herein, inhibitors of Menin/MLL interaction, to inhibit cell proliferation. The proliferation inhibitory effect was investigated in human MLL-leukemia cells selected on the bases of MLL fusion proteins and listed in the table below.
(§2) ATP is present in all metabolically active cells and is considered as a marker for cell viability and proliferation. The metabolic cell activity was determined using the CellTiter-Glo kit from Promega, an ATP monitoring system based on the production of luminescence by the reaction of ATP with added UltraGlo® recombinant luciferase (Kawano et al., 2016, PLOS One, 8:11(7):e0158888), according to the supplier's experimental recommendations. The assay is based on a 96 well plate format. All experiments were carried out in duplicate in one test occasion.
(§3) Test items were dissolved at 20 mM in DMSO with purity ≥99.9% (Sigma catalog no. D8418) and stored at −20° C. Cells were maintained in RPMI-1640 medium (Invitrogen catalog no. 618700) supplemented with 10% of Heat Inactivated FBS (Invitrogen catalog no. 10500) and 1% Pen-Strep (Invitrogen catalog no. 15140) and cultured at 37° C. in a humidified incubator with 5% CO2. Cell lines were grown in suspension and the cell density was maintained in a range of 5×10^4-1×10^6 viable cells/ml where possible. Cells were pelleted at 130 g×5 min.
(§4) Serial dilutions of compounds 1 to 3 in DMSO 100% were prepared starting from a 2.5 mM solutions (prepared by diluting 1:8 the 20 mM stock solution) to generate a 7 point concentration response curve (CRC). Seven concentrations of test compounds (e.g., 5.00×10^−6-1.67×10^−6-5.56×10^−7-1.85×10^−7-6.17×10^−8-2.06×10^−8-6.86×10^−9 M) were assessed in duplicate in an individual test occasion in parallel in the selected cell lines. KO-539 was used as a reference compound and tested in duplicate at seven similar concentrations. 100% of proliferation was represented by the untreated cells (0.2% DMSO).
(§5) Cell proliferation inhibition was monitored at both the following end points: Day 4 (T4) and Day 7 (T7). For the appropriate cell density during the exponential cell growth and re-supply with fresh compound solution at T4, cells were diluted (1:4) with fresh medium containing the compound concentration (1×).
(§6) For each plate to test, one 0.4 μL copy plate and four 0.3 μL copy plates were stamped into 96-well plates not treated for cell adhesion (Sarstedt—cat. no. 82.1581.001) by acoustic liquid handling (Echo) at a concentration which was 500 fold the final assay concentration. Stamped plates were stored at −20° C.
(§7) On Day 0, the day of the experiment cell line suspensions were counted by Cell Viability Analyser, Vi-CELL (Beckman Coulter AY15292), and diluted with fresh medium to obtain the following cell densities: K-562 500 c/ml, MOLM-13 1,000 c/ml, MV4-11 10,000 c/ml, OCI-AML-3 500 c/ml, and U-937 500-1,000 c/ml. 200 μL/well and 150 μL/well of cell suspension were added into the 0.4 μL/well and 0.3 μL/well compound plates, respectively. Cell plate containing 200 μL/well suspension were incubated at 37° C. in a humidified incubator with 5% CO2. From each well of the 150 μL/well cell assay plate, 100 μL were harvested and transferred into a 96-well Optiplate (Perkin Elmer, cat. no. 6005290). Cell viability was measured as described below.
(§8) On Day 4, 150p/well of fresh medium was added into a new 0.3 μL/well copy compound plates. From each well of the 200 μL/well cell assay plate, 100 μL was sampled for the cell viability measurement as described below. 50p was harvested and added to the 150p/well compound plate prepared as described in the first point to dilute 1:4 the cell suspension. The cell assay plate diluted and containing 200 μL/well suspension was incubated at 37° C. in a humidified incubator with 5% CO2.
(§9) On Day 4, 150p/well of fresh medium was added into a new 0.3 μL/well copy compound plates. […]

The test system of the next test is K-562. The experiment in a line: Cell proliferation inhibition (CellTiter-Glo), K-562 cells. The settings on record: Homo sapiens, K562, 96 h; K-562 (BCR-ABL), Day 4; read-out: K-562 IC50 μM (Day 4). As to the method: as §1, §2, §3, §4, §5, §6, §7, §8, §9
The test system of another test is MOLM-13. The experiment in a line: Cell proliferation inhibition (CellTiter-Glo), MOLM-13 cells. The note with it: Homo sapiens, 96 h; MOLM-13 (MLL-AF9), Day 4; read-out: MOLM-13 Day IC50 μM (Day 4)*. As to the method:
as §1, §2, §3, §4, §5, §6, §7, §8, §9
On the technique in general: Cellular ATP, detected with luciferase, serves as a proxy for viable cell number.

This note sets out measurements from patent US20240124467A1, “FUSED PYRIMIDINE COMPOUNDS AS INHIBITORS OF MENIN-MLL INTERACTION” (Biomea Fusion, Inc., priority 2020, published 2024).

Molecules are shown by their SMILES. Some results are limits rather than exact numbers.

With `C=CC(=O)N[C@@H]1CCCN(Cc2ccnc(C(=O)Nc3ccc(-c4[nH]c5ncnc(N6CCOCC6)c5c4C)cc3)c2)C1` [Compound B0700-528], the IC50 with MV4-11 was 0.464 µM; with K-562, 1.18 µM; with MOLM-13, 0.462 µM.
As to `C=CC(=O)N[C@@H]1CCCN(Cc2ccnc(C(=O)Nc3ccc(-c4cc5c(N6CCOCC6)ncnc5[nH]4)c(F)c3)c2)C1` [Compound B0700-529, (R)-4-((3-acrylamidopiperidin-1-yl)methyl)-N-(3-fluoro-4-(4-morpholino-7H-pyrrolo[2,3-d]pyrimidin-6-yl)phenyl)picolinamide], the results for the IC50 with MV4-11, in the test on K-562 and in the test on MOLM-13 were 0.969 µM, 6.14 µM and 0.351 µM, respectively.
The corresponding values for `C=CC(=O)N[C@@H]1CCCN(Cc2ccc(F)c(C(=O)Nc3ccc(-c4cc5c(N6CCOCC6)ncnc5[nH]4)cc3)c2)C1` [Compound B0700-530] are 0.314 µM, 0.616 µM and 0.28 µM.
For `C=CC(=O)N[C@@H]1CCCN(Cc2ccc(C)c(C(=O)Nc3ccc(-c4cc5c(N6CCOCC6)ncnc5[nH]4)cc3)c2)C1` [Compound B0700-531] the same measures were 0.345 µM, 0.805 µM and 0.311 µM.
`C=CC(=O)N[C@@H]1CCCN(Cc2cccc(S(=O)(=O)Nc3ccc(-c4nc5c(N6CCOCC6)ncnc5s4)cc3)c2)C1` [Compound B0700-532, (R)—N-(1-(3-(N-(4-(7-morpholinothiazolo[5,4-d]pyrimidin-2-yl)phenyl)sulfamoyl)benzyl)piperidin-3-yl)acrylamide]: the IC50 in the test with MV4-11, in the test on K-562 and with MOLM-13 was over 10 µM in each case.
Regarding `C=CC(=O)N[C@@H]1CCCN(Cc2cccc(S(=O)(=O)NC3CCN(c4nc5c(N6CCOCC6)ncnc5s4)CC3)c2)C1` [Compound B0700-533], the IC50 in the test on MV4-11, in the test on K-562 and in the test with MOLM-13 was over 10 µM throughout.
Turning to `C=CC(=O)N[C@@H]1CCCN(Cc2cccc(S(=O)(=O)Nc3ccc(-c4nc5c(N6CCOCC6)ncnc5s4)nc3)c2)C1` [Compound B0700-534, (R)—N-(1-(3-(N-(6-(7-morpholinothiazolo[5,4-d]pyrimidin-2-yl)pyridin-3-yl)sulfamoyl)benzyl)piperidin-3-yl)acrylamide], the IC50 in the test on MV4-11, in the test with K-562 and in the test with MOLM-13 was over 10 µM throughout.
In the case of `C=CC(=O)N[C@@H]1CCN(c2cccc(CS(=O)(=O)Nc3ccc(-c4cc5c(N6CCOCC6)ncnc5[nH]4)cc3)c2)C1` [Compound B0700-535, (R)—N-(1-(3-((N-(4-(4-morpholino-7H-pyrrolo[2,3-d]pyrimidin-6-yl)phenyl)sulfamoyl)methyl)phenyl)pyrrolidin-3-yl)acrylamide], the figures for the half-inhibitory concentration (IC50) in the test with MV4-11, in the test with K-562 and in the test with MOLM-13 were over 10 µM, 7.05 µM and 0.184 µM, respectively.
On to `C=CC(=O)N[C@H]1CCN(c2cccc(CS(=O)(=O)Nc3ccc(-c4cc5c(N6CCOCC6)ncnc5[nH]4)cn3)c2)C1` [Compound B0700-536], for which the half-maximal inhibitory concentration (IC50) is 3.88 µM in the test on MV4-11, over 10 µM in the test with K-562 and 5.68 µM in the test with MOLM-13.
The corresponding values for `C=CC(=O)N[C@H]1CCN(c2cccc(CS(=O)(=O)NC3CCN(c4nc5c(N6CCOCC6)ncnc5s4)CC3)c2)C1` [Compound B0700-537] are over 10 µM, over 10 µM and over 10 µM.
The corresponding values for `C=CC(=O)N[C@@H]1CCCN(c2cccc(CS(=O)(=O)Nc3ccc(-c4cc5c(N6CCOCC6)ncnc5[nH]4)cc3)c2)C1` [Compound B0700-539] are 0.436 µM, over 10 µM and 0.374 µM.
The corresponding values for `C=CC(=O)N[C@H]1CCCN(c2cccc(CS(=O)(=O)Nc3ccc(-c4cc5c(N6CCOCC6)ncnc5[nH]4)cc3)c2)C1` [Compound B0700-540] are 0.148 µM, over 10 µM and 0.329 µM.
As for `C=CS(=O)(=O)N[C@H]1CCN(c2cccc(CS(=O)(=O)Nc3ccc(-c4cc5c(N6CCOCC6)ncnc5[nH]4)cc3)c2)C1` [Compound B0700-541], the figures for the IC50 with MV4-11, in the test on K-562 and in the test with MOLM-13 were 0.09 µM, 2.06 µM and 0.193 µM, respectively.
For `C=CS(=O)(=O)N[C@@H]1CCCN(c2cccc(CS(=O)(=O)Nc3ccc(-c4cc5c(N6CCOCC6)ncnc5[nH]4)cc3)c2)C1` [Compound B0700-542, (R)—N-(1-(3-((N-(4-(4-morpholino-7H-pyrrolo[2,3-d]pyrimidin-6-yl)phenyl)sulfamoyl)methyl)phenyl)piperidin-3-yl)ethenesulfonamide] the same measures were 0.322 µM, 3.3 µM and 0.48 µM.
The corresponding values for `C=CC(=O)N[C@H]1CCN(c2cccc(C(C)S(=O)(=O)Nc3ccc(-c4cc5c(N6CCOCC6)ncnc5[nH]4)cc3)c2)C1` (stereo partly drawn) [Compound B0700-543] are 0.073 µM, 9.07 µM and 0.158 µM.
For `C=CC(=O)N[C@@H]1CCCN(c2cccc(C(C)S(=O)(=O)Nc3ccc(-c4cc5c(N6CCOCC6)ncnc5[nH]4)cc3)c2)C1` (stereo partly drawn) [Compound B0700-545] the same measures were 0.84 µM, over 10 µM and 1.07 µM.
For `C=CC(=O)N[C@@H]1CCCN(c2cccc([C@@H](C)S(=O)(=O)Nc3ccc(-c4cc5c(N6CCOCC6)ncnc5[nH]4)cc3)c2)C1` [Compound B0700-546], the concentration for half-maximal inhibition (IC50) in the test on MV4-11 was 1.75 µM; with K-562, over 10 µM; in the test on MOLM-13, 3.59 µM.
The corresponding values for `C=CC(=O)N[C@@H]1CCCN(c2cccc([C@H](C)S(=O)(=O)Nc3ccc(-c4cc5c(N6CCOCC6)ncnc5[nH]4)cc3)c2)C1` [Compound B0700-547] are 0.418 µM, over 10 µM and 1.39 µM.
On to `C=CC(=O)N[C@@H]1CCCN(Cc2ccnc(C(=O)Nc3ccc(-c4cc5c(N6CCOCC6)ncnc5[nH]4)cc3F)c2)C1` [Compound B0700-549], for which the IC50 with MV4-11 was 0.796 µM; in the test with K-562 it was over 10 µM; in the test with MOLM-13, 0.475 µM.
The corresponding values for `C/C=C/S(=O)(=O)N[C@@H]1CCCN(Cc2ccnc(C(=O)Nc3ccc(-c4cc5c(N6CCOCC6)ncnc5[nH]4)cc3)c2)C1` [Compound B0700-550] are 0.212 µM, over 10 µM and 0.276 µM.
As to `C=CC(=O)N[C@@H]1CCCN(c2cccc(C(C)S(=O)(=O)Nc3ccc(-c4cc5c(N6CCOCC6)ncnc5[nH]4)cc3F)c2)C1` (stereo partly drawn) [Compound B0700-559, N-((3R)-1-(3-(1-(N-(2-fluoro-4-(4-morpholino-7H-pyrrolo[2,3-d]pyrimidin-6-yl)phenyl)sulfamoyl)ethyl)phenyl)piperidin-3-yl)acrylamide], the figures for the IC50 with MV4-11, in the test with K-562 and with MOLM-13 were 1.56 µM, over 10 µM and 3.91 µM, respectively.

In general, IC50 refers to the concentration that inhibits the measured activity by half.
